What was measured:
[1] = system: mouse experimental autoimmune encephalomyelitis (EAE) models; test: Histopathological examination of spinal cord tissues of EAE mice; format: in vivo, mouse (SJL/J); conditions: Day 16 post-immunization
[2] = system: mouse experimental autoimmune encephalomyelitis (EAE) models; test: Clinical symptom scores in mouse experimental autoimmune encephalomyelitis (EAE) model; format: in vivo, mouse (SJL/J); conditions: Day 10 to Day 44 after immunization, versus tap water group 1, FIG. 1
Protocol: In mouse experimental autoimmune encephalomyelitis (EAE) models, which are MS animal models, the effects of 2-(3-cyano-4-isobutyloxyphenyl)-4-methyl-5-thiazolecarboxylic acid (Compound A) were investigated. Proteolipid protein (PLP) and complete Freund's adjuvant were administered subcutaneously to 8-week-old female SJL/J mice for immunization to induce EAE. The animals were divided into 3 groups; tap water, 1.5 mg/kg/day of Compound A and 0.75 mg/kg/day of Compound A were administered to the first, second and third group, respectively, by administration in drinking water from Day 10 to Day 44 after the immunization day. Neurological symptoms in the extremities were monitored daily from the day of immunization to Day 44 post-immunization, and the observations were scored as clinical symptoms (Vsevolod Smolianov, et al., Alteration of T cell cytokine production in PLPp-139-151-induced EAE in SJL mice by animmunostimulatory CpG Oligonucleotide. Journal of Neuroinflammation 2011, 8:59).

Structure (SMILES): Cc1nc(-c2ccc(OCC(C)C)c(C#N)c2)sc1C(=O)O [Compound A, 2-(3-cyano-4-isobutyloxyphenyl)-4-methyl-5-thiazolecarboxylic acid]
- Inflammation in the spinal cord tissues (iNOS-positive cells, activated macrophages, activation of astrocytes) ([1]; conclusion from FIG. 2): suppressed inflammation in the tissues
- Staining of inducible nitric oxide synthase (iNOS), macrophages and astrocytes in spinal cord tissues ([1]; group 3: 0.75 mg/kg/day, versus tap water group 1, FIG. 2): weak
- Clinical symptoms of EAE (neurological symptom scores) ([2]; group 2: 1.5 mg/kg/day in drinking water): suppressed
- Clinical symptoms of EAE (neurological symptom scores) ([2]; group 3: 0.75 mg/kg/day in drinking water): suppressed

Reference: patent US20150065544A1, “THERAPEUTIC AGENT AND PREVENTIVE AGENT FOR DEMYELINATING DISEASE” (OSAKA UNIVERSITY, priority 2011, published 2015)
